Experimental data as given in ChEMBL document CHEMBL3085711, “Phosphorus-nitrogen compounds part 27. Syntheses, structural characterizations, antimicrobial and cytotoxic activities, and DNA interactions of new phosphazenes bearing secondary amino and pendant (4-fluorobenzyl)spiro groups” (2013).
Values after ≈ are worked out from the molar mass of the structure shown. Active and inactive are the calls of the source. The calls are words filed in the database; no cut-off is given here.

Tests used:
Escherichia coli [1] = assay: Binding affinity to Escherichia coli pBR322 DNA assessed as DNA strand cleavage at 156 to 2500 uM after 24 hrs by agarose gel electrophoresis
Escherichia coli [2] = assay: Binding affinity to Escherichia coli pBR322 G/GATCC DNA assessed as DNA strand cleavage at 625 to 2500 uM preincubated for 24 hrs prior to BamHI treatment measured after 1 hr by agarose gel electrophoresis
HeLa [3] = assay: Cytotoxicity against human HeLa cells assessed as decrease in cell viability at 5 to 50 ug/ml after 24 hrs by MTT assay relative to control; assay type: functional
HeLa [4] = assay: Induction of apoptosis in human HeLa cells assessed as loss of mitochondrial membrane potential at 25 uM after 24 hrs by DiOC6 staining-based fluorescence microscopic analysis; assay type: functional, cell-based
HeLa [5] = assay: Induction of apoptosis in human HeLa cells assessed as change in cellular morphology at 25 uM after 24 hrs by propidium iodide staining-based fluorescence microscopic analysis; assay type: functional, cell-based
HeLa [6] = assay: Induction of apoptosis in human HeLa cells at 25 uM after 48 to 72 hrs by DAPI staining-based fluorescence microscopic analysis; assay type: functional, cell-based
HeLa [7] = assay: Cytotoxicity against human HeLa cells assessed as decrease in cell survival at 10 ug/ml after 48 hrs by trypan blue exclusion assay; assay type: functional, cell-based
HeLa [8] = assay: Cytotoxicity against human HeLa cells assessed as decrease in cell viability after 24 hrs by MTT assay; assay type: functional, cell-based
Candida tropicalis [9] = assay: Antifungal activity against Candida tropicalis ATCC 13803 at 50 ug after 72 hrs by disk diffusion method; assay type: functional; conditions: ATCC 13803, 72 h, read-out: DIZ
Candida albicans [10] = assay: Antifungal activity against Candida albicans ATCC 10231 at 50 ug after 72 hrs by disk diffusion method; assay type: functional; conditions: ATCC 10231, 72 h, read-out: DIZ
Bacillus subtilis [11] = assay: Antibacterial activity against Bacillus subtilis; assay type: functional
Candida albicans [12] = assay: Antifungal activity against Candida albicans ATCC 10231 at 0.25 mM after 72 hrs by disk diffusion method; assay type: functional; conditions: ATCC 10231, 72 h, read-out: DIZ
Candida tropicalis [13] = assay: Antifungal activity against Candida tropicalis ATCC 13803; assay type: functional
Bacillus subtilis [14] = assay: Antibacterial activity against Bacillus subtilis at 0.25 mM after 24 hrs by disk diffusion method; assay type: functional; conditions: read-out: DIZ
Candida albicans [15] = assay: Antifungal activity against Candida albicans ATCC 10231; assay type: functional
Candida tropicalis [16] = assay: Antifungal activity against Candida tropicalis ATCC 13803 at 0.25 mM after 72 hrs by disk diffusion method; assay type: functional; conditions: ATCC 13803, 72 h, read-out: DIZ
Escherichia coli [17] = assay: Binding affinity to Escherichia coli pBR322 A/AGCTT DNA assessed as DNA strand cleavage at 625 to 2500 uM preincubated for 24 hrs prior to HindIII treatment measured after 1 hr by agarose gel electrophoresis
HeLa [18] = assay: Cytotoxicity against human HeLa cells assessed as decrease in cell viability at 5 ug/ml after 24 hrs by MTT assay relative to control; assay type: functional, cell-based
Bacillus subtilis [19] = assay: Antibacterial activity against Bacillus subtilis at 30 ug after 24 hrs by disk diffusion method; assay type: functional; conditions: read-out: DIZ
Bacillus cereus [20] = assay: Antibacterial activity against Bacillus cereus at 30 ug after 24 hrs by disk diffusion method; assay type: functional; conditions: read-out: DIZ
Bacillus cereus [21] = assay: Antibacterial activity against Bacillus cereus at 10 ug after 24 hrs by disk diffusion method; assay type: functional; conditions: read-out: DIZ
Bacillus subtilis [22] = assay: Antibacterial activity against Bacillus subtilis at 10 ug after 24 hrs by disk diffusion method; assay type: functional; conditions: read-out: DIZ
HeLa [23] = assay: Cytotoxicity against human HeLa cells assessed as decrease in cell viability at 10 to 50 ug/ml after 24 hrs by MTT assay relative to control; assay type: functional, cell-based
Bacillus cereus [24] = assay: Antibacterial activity against Bacillus cereus at 0.25 mM after 24 hrs by disk diffusion method; assay type: functional; conditions: read-out: DIZ
Bacillus cereus [25] = assay: Antibacterial activity against Bacillus cereus; assay type: functional

What does the source list for `CCN1CCN(Cc2ccc(F)cc2)P12=NP(N1CCC3(CC1)OCCO3)(N1CCC3(CC1)OCCO3)=NP(N1CCC3(CC1)OCCO3)(N1CCC3(CC1)OCCO3)=N2` (centres undefined)?
Activity (Escherichia coli [1]): Active; Activity (Escherichia coli [2]): Active; Activity (HeLa [3]): inactive

For `CN1CCCN(Cc2ccc(F)cc2)P12=NP(N1CCC3(CC1)OCCO3)(N1CCC3(CC1)OCCO3)=NP(N1CCC3(CC1)OCCO3)(N1CCC3(CC1)OCCO3)=N2` (centres undefined), which Activity (Escherichia coli [1]) is on record?
The Activity was “Active”.

What about the Activity (HeLa [4]) of the same compound?
The Activity was “Active”.

And the Activity (Escherichia coli [2])?
The Activity was “Active”.

And the Activity (HeLa [5])?
The Activity was “inactive”.

And the Activity (HeLa [3])?
The Activity was 49%.

And the Activity (HeLa [6])?
The Activity was “Active”.

What about the Activity (HeLa [7]) of the same compound?
Its Activity is “Active”.

Which results are given for `CC(=O)O[C@H]1C(=O)[C@@]2(C)[C@H]([C@H](OC(=O)c3ccccc3)[C@]3(O)C[C@H](OC(=O)[C@H](O)[C@@H](NC(=O)c4ccccc4)c4ccccc4)C(C)=C1C3(C)C)[C@]1(OC(C)=O)CO[C@@H]1C[C@@H]2O`?
Activity (HeLa [3]): Active; Activity (HeLa [8]): Dose-dependent effect

What does the source list for `CC(=O)N1CCN(c2ccc(OCC3COC(Cn4ccnc4)(c4ccc(Cl)cc4Cl)O3)cc2)CC1` (centres undefined) [KETOCONAZOLE]?
zone of inhibition at 50 µg/disc (Candida tropicalis [9]): 29 mm; zone of inhibition at 50 µg/disc (Candida albicans [10]): 29 mm

For `CCN1CCN(Cc2ccc(F)cc2)P12=NP(N1CCCCC1)(N1CCCCC1)=NP(N1CCCCC1)(N1CCCCC1)=N2` (centres undefined), which MIC (Bacillus subtilis [11]) is on record?
The MIC was 156 µM (≈ 104 µg/mL).

And the zone of inhibition at 250 µM (Candida albicans [12])?
Its zone of inhibition at 250 µM is 12.3 mm.

And the MIC (Candida tropicalis [13])?
Its MIC is 19.5 µM (≈ 13 µg/mL).

And the Activity (Escherichia coli [1])?
The Activity was “Active”.

What about the zone of inhibition at 250 µM (Bacillus subtilis [14]) of the same compound?
The zone of inhibition at 250 µM was 10.7 mm.

What about the Activity (Escherichia coli [2]) of the same compound?
Its Activity is “Active”.

What about the MIC (Candida albicans [15]) of the same compound?
Its MIC is 625 µM (≈ 416 µg/mL).

And the zone of inhibition at 250 µM (Candida tropicalis [16])?
The zone of inhibition at 250 µM was 17.3 mm.

And the Activity (HeLa [8])?
The Activity was “Dose-dependent effect”.

What does the source list for `CN1CCN(Cc2ccc(F)cc2)P12=NP(N1CCOCC1)(N1CCOCC1)=NP(N1CCOCC1)(N1CCOCC1)=N2` (centres undefined)?
Activity (Escherichia coli [1]): Active; Activity (HeLa [3]): inactive; Activity (Escherichia coli [17]): Active

How did the MIC (Bacillus subtilis [11]) turn out when `CCN1CCN(Cc2ccc(F)cc2)P12=NP(N1CCCC1)(N1CCCC1)=NP(N1CCCC1)(N1CCCC1)=N2` (centres undefined) was run?
Its MIC is 9.8 µM (≈ 5.97 µg/mL).

What about the Activity (Escherichia coli [1]) of the same compound?
Its Activity is “Active”.

What about the zone of inhibition at 250 µM (Bacillus subtilis [14]) of the same compound?
Its zone of inhibition at 250 µM is 11.5 mm.

What about the Activity (Escherichia coli [2]) of the same compound?
Its Activity is “Active”.

What about the Activity (HeLa [8]) of the same compound?
Its Activity is “Dose-dependent effect”.

What about the Activity (HeLa [18]) of the same compound?
The Activity was “Active”.

How did the zone of inhibition at 30 µg/disc (Bacillus subtilis [19]) turn out when `O=C(N[C@H](CO)[C@H](O)c1ccc([N+](=O)[O-])cc1)C(Cl)Cl` [CHLORAMPHENICOL] was run?
Its zone of inhibition at 30 µg/disc is 31 mm.

What about the zone of inhibition at 30 µg/disc (Bacillus cereus [20]) of the same compound?
Its zone of inhibition at 30 µg/disc is 26 mm.

Which results are given for `CC1(C)S[C@@H]2[C@H](NC(=O)[C@H](N)c3ccccc3)C(=O)N2[C@H]1C(=O)O` [AMPICILLIN]?
zone of inhibition at 10 µg/disc (Bacillus cereus [21]): 26.3 mm; zone of inhibition at 10 µg/disc (Bacillus subtilis [22]): 30.3 mm

What does the source list for `CN1CCN(Cc2ccc(F)cc2)P12=NP(N1CCCC1)(N1CCCC1)=NP(N1CCCC1)(N1CCCC1)=N2` (centres undefined)?
MIC (Bacillus subtilis [11]): 9.8 µM (≈ 5.84 µg/mL); Activity (Escherichia coli [1]): Active; zone of inhibition at 250 µM (Bacillus subtilis [14]): 12.3 mm; Activity (Escherichia coli [2]): Active; Activity (HeLa [8]): Dose-dependent effect

What does the source list for `CCN1CCN(Cc2ccc(F)cc2)P12=NP(N1CCOCC1)(N1CCOCC1)=NP(N1CCOCC1)(N1CCOCC1)=N2` (centres undefined)?
Activity (Escherichia coli [1]): Active; Activity (HeLa [3]): inactive; Activity (Escherichia coli [17]): Active

Which results are given for `CN1CCCN(Cc2ccc(F)cc2)P12=NP(N1CCCCC1)(N1CCCCC1)=NP(N1CCCCC1)(N1CCCCC1)=N2` (centres undefined)?
zone of inhibition at 250 µM (Candida albicans [12]): 18.3 mm; MIC (Candida tropicalis [13]): 19.5 µM (≈ 13 µg/mL); Activity (HeLa [23]): Active; Activity (Escherichia coli [1]): Active; Activity (Escherichia coli [2]): Active; MIC (Candida albicans [15]): 9.8 µM (≈ 6.52 µg/mL); zone of inhibition at 250 µM (Candida tropicalis [16]): 20 mm; Activity (HeLa [8]): Dose-dependent effect

For `CN1CCCN(Cc2ccc(F)cc2)P12=NP(N1CCCC1)(N1CCCC1)=NP(N1CCCC1)(N1CCCC1)=N2` (centres undefined), which zone of inhibition at 250 µM (Bacillus cereus [24]) is on record?
The zone of inhibition at 250 µM was 12.6 mm.

And the MIC (Bacillus subtilis [11])?
The MIC was 9.8 µM (≈ 5.97 µg/mL).

And the Activity (Escherichia coli [1])?
The Activity was “Active”.

And the zone of inhibition at 250 µM (Bacillus subtilis [14])?
The zone of inhibition at 250 µM was 16.5 mm.

And the Activity (Escherichia coli [2])?
The Activity was “Active”.

What about the Activity (HeLa [3]) of the same compound?
Its Activity is 50%.

And the Activity (HeLa [8])?
Its Activity is “Dose-dependent effect”.

What about the MIC (Bacillus cereus [25]) of the same compound?
Its MIC is 156 µM (≈ 95.3 µg/mL).

With `CN1CCN(Cc2ccc(F)cc2)P12=NP(N1CCCCC1)(N1CCCCC1)=NP(N1CCCCC1)(N1CCCCC1)=N2` (centres undefined) as the compound, how does the zone of inhibition at 250 µM (Candida albicans [12]) read?
Its zone of inhibition at 250 µM is 13.6 mm.

What about the MIC (Candida tropicalis [13]) of the same compound?
Its MIC is 156 µM (≈ 102 µg/mL).

What about the Activity (Escherichia coli [1]) of the same compound?
The Activity was “Active”.

What about the Activity (Escherichia coli [2]) of the same compound?
Its Activity is “Active”.

What about the MIC (Candida albicans [15]) of the same compound?
The MIC was 156 µM (≈ 102 µg/mL).

And the zone of inhibition at 250 µM (Candida tropicalis [16])?
The zone of inhibition at 250 µM was 17.3 mm.

And the Activity (HeLa [8])?
Its Activity is “Dose-dependent effect”.

`CN1CCN(Cc2ccc(F)cc2)P12=NP(N1CCC3(CC1)OCCO3)(N1CCC3(CC1)OCCO3)=NP(N1CCC3(CC1)OCCO3)(N1CCC3(CC1)OCCO3)=N2` (centres undefined) was tested. Which Activity (Escherichia coli [1]) did it give?
The Activity was “Active”.

And the Activity (HeLa [4])?
The Activity was “Active”.

What about the Activity (Escherichia coli [2]) of the same compound?
The Activity was “Active”.

And the Activity (HeLa [5])?
The Activity was “inactive”.

And the Activity (HeLa [3])?
The Activity was “inactive”.

And the Activity (HeLa [6])?
The Activity was “Active”.

And the Activity (HeLa [7])?
The Activity was “Active”.

`CN1CCCN(Cc2ccc(F)cc2)P12=NP(N1CCOCC1)(N1CCOCC1)=NP(N1CCOCC1)(N1CCOCC1)=N2` (centres undefined) was tested. Which Activity (Escherichia coli [1]) did it give?
The Activity was “Active”.

What about the Activity (HeLa [4]) of the same compound?
Its Activity is “Active”.

What about the Activity (HeLa [5]) of the same compound?
Its Activity is “inactive”.

And the Activity (HeLa [3])?
The Activity was 58%.

What about the Activity (Escherichia coli [17]) of the same compound?
Its Activity is “Active”.
